Test results reported in publication PMC3763447 (Cell Death & Disease, 2013).
Peptide text beside a SMILES is read from it. * marks the point of attachment. Cbz = O=C(OCc1ccccc1)*

How the values were obtained:
Experiment in all cases: fluorogenic substrate
Format in all cases: biochemical
[1] = molecular target: T1, 20S proteasome β1 subunit (PGPH activity) (Homo sapiens, UniProt P28072)
T1 sequence (P28072 35-239): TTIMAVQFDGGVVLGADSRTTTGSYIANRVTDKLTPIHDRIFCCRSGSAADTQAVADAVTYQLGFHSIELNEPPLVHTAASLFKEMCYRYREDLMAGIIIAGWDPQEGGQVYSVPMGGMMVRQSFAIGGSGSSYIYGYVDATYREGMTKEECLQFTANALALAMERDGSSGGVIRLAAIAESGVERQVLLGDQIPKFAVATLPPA

[2] = molecular target: T2, 20S proteasome β5 subunit (chymotrypsin-like activity) (Homo sapiens, UniProt P28074)
T2 sequence (P28074 60-263): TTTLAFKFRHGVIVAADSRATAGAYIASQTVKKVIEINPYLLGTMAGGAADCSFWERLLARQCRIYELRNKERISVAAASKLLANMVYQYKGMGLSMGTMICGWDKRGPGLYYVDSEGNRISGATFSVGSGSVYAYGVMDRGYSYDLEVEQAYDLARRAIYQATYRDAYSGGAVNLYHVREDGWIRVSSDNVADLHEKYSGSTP

[3] = molecular target: T1, 20S proteasome β1 subunit (PGPH activity); remark: listed apart in the source

Row | Compound | IC50 [1] [µM] | IC50 [2] [µM] | fluorogenic substrate (Bz-LLE-AMC) assay with purified 20S proteasome [3]
1 | COc1ccc(O)c2c1Oc1cccc(c1)CCc1ccc(O)c(c1)Oc1ccc(cc1)CC2 [Mar, marchantin M] | 5.33 | 6.99 | 
2 | CC(C)C[C@@H](C=O)NC(=O)[C@H](CC(C)C)NC(=O)[C@H](CC(C)C)NC(=O)OCc1ccccc1 [MG132] (Cbz-Leu-Leu-Leu-aldehyde) |  |  | MG132, a known proteasome inhibitor for a positive control, showed more potent inhibition on the proteasome ChT-L and PGPH activities
